Drawing on patent publication US10695347B2, “Pyrimidine derivative and use thereof” (Hubei Bio-Pharmaceutical Industrial Technological Institute …, priority 2015, dated 2020), this text covers response rate and IC50 for 6 compounds.

Assay [1] has as its system ALK-positive NSCLC. Particulars: 88 patients with ALK-positive NSCLCs who had undergone Crizotinib therapy, early clinical trial; cited from earlier work.
The subject of assay [2] is Karpas299 cells. Briefly: Suppression of Karpas299 cell proliferation (CellTiter-Glo). In kind it is cell-based. Particulars: Homo sapiens, KARPAS-299, 72 h; 3 days incubation; read-out: Inhibition activity on Karpas299 cells IC50. How it is done:
(§1) As the amount of ATP can indicate the number of living cells directly, the living cells in culture are able to be quantified by determining the ATP level. In our experiment, we use a living-cell testing kit to quantify the living cells, which utilizes UltraGlow luciferase to generate a stable glow signal in the presence of ATP which is produced by metabolism of living cells, such as respiration. Specifically, a reagent CellTiter-Glo™ was added into cell culture media, and then the luminescent intensity was determined to measure proliferation of cells, as the luminescent intensity is in direct proportion to the ATP level which correlates positively to the number of living cells. The test plate was tested with the Envision (PE).
Cell media: RPMI-1640 medium, fetal calf serum (FCS), antibiotics (Penicillin-Streptomycin)
Assay reagent: Cell Viability Assay Kit CellTiter-Glo
(§2) Others: a 96-well plate, a 384-well plate, DMSO
(§3) Step 3.1 Culturing test cells
Karpas 299 cells were plated into a black 384-well plate, with 2500 cells in 45 μl cell suspension per well. The plate was placed in a carbon dioxide incubator overnight.
(§4) Step 3.2 Preparation of the compounds to be tested
Each compound to be tested was dissolved in DMSO at 10 mM as the stock solution, which was left in a nitrogen-gas tank for storage.
After dilution of 10 μL stock solution (10 mM) into 2.5 mM as a starting working solution, 10 concentrations of the working solutions from 5 μM to 0.25 nM were obtained in duplicate by further dilution in 3-fold series with ECHO.
Step 3.3 Mixing the compound with the test cells
To each well of a new 96-well plate were added 49 μl medium and 1 μl of the compounds to be tested at individual working concentrations (10 concentrations in total). After oscillation,
5 μl of mixture in each well of the 96-well plate was transferred into corresponding wells in the 384-well plate in the step 3.1. The 384-well plate was incubated in the carbon dioxide incubator for 3 days.
To each well of the 384-well plate was added […] reagent Promega CellTiter-Glo. and incubated at room temperature for 10 minutes to stabilize the luminescence signal. The results were read with the PerkinElmer Envision Multi-mode Plate Reader.
A general note: ATP-based viability assays read luminescence as a measure of living cells.

Assay [3] addresses ALK L1196M (Homo sapiens (Human), UniProt Q9UM73, L1196M). Briefly: Inhibition of ALK L1196M kinase activity (Caliper mobility shift). In kind it is biochemical. The protocol:
(§5) Inhibition of Compound I Against ALK Kinase Activity
(§6) • I. Preparation of 1× kinase buffer and stop buffer
(§7) 1) 1× Kinase Buffer • 50 mM HEPES. pH 7.5 • 0.0015% Brij-35 • 10 mM MgCl2 • 2 mM DTT • 2) stop buffer • 100 mM HEPES, pH 7.5 • 0.015% Brij-35 • 0.2% Coating Reagent #3 • 50 mM EDTA
(§8) 2. Prepare a Compound Solution to be Tested • Step 2.1 Dilute the compound to 50× of the final desired highest inhibitor concentration in reaction by 100% DMSO. Transfer 100 μl of this compound dilution to a well in a 96-well plate. For example, if desired highest inhibitor concentration is 1 μM, then prepare 50 μM of compound DMSO solution in this step.
(§9) Step 2.2 Further dilute said compound dilution by 3-fold in series, thus obtain 10 concentrations.
(§10) Step 2.3 Add 100 μl of 100% DMSO to two empty wells for no compound control and no enzyme control in the same 96-well plate. Mark the plate as source plate.
(§11) Step 2.4 Prepare an intermediate plate
(§12) Transfer 10 μl of each compound from the source plate to a new 96-well plate as the intermediate plate.
(§13) Add 90 μl of 1× kinase buffer to each well of the intermediate plate. Mix the compounds in the intermediate plate for 10 min on a shaker.
(§14) Transfer 5 μl of each well from the 96-well intermediate plate to a 384-well plate in duplicate. For example, A1 of the 96-well plate is transferred to A1 and A2 of the 384-well plate. A2 of the 96-well plate is transferred to A3 and A4 of the 384-well plate, and so on.
(§15) 4.1 Prepare a 2.5× kinase solution
(§16) Add kinase in 1× kinase base buffer, thus obtain the 2.5× kinase solution.
(§17) 4.2 Prepare a 2.5× peptide solution
(§18) 4.3 In each well of the assay plate obtained in step 3, there was 5 μL of the compound in 10% DMSO.
(§19) 4.4 Transfer the 2.5× enzyme solution to the assay plate.
(§20) 4.5 Incubate at room temperature for 10 min.
(§21) 4.6 Transfer the 2.5× peptide solution to the assay plate.
(§22) 4.7 Kinase reaction and stop
(§23) Incubate at 28° C. for 20 min.
(§24) Add 25 μl of stop buffer to stop reaction.
(§25) Conversion rate of the kinase was read via the Caliper.
(§26) 6.1 Copy conversion data from Caliper program.
(§27) 6.2 Convert conversion values to inhibition values with the following formula: Percent inhibition=(max−conversion)/(max−min)*100
(§28) where “max” stands for DMSO control; and “min” stands for low control.
(§29) 6.3 Fit the data in XLfit excel add-in version 4.3.1 and obtain IC50 values according to the following formula: Y=Bottom+(Top−Bottom)/[…].

The subject of assay [4] is Ba/F3 EML4-ALK cells. Briefly: Suppression of Ba/F3 EML4-ALK cell proliferation (CellTiter-Glo). The assay is classed as cell-based. Particulars: Ba/F3 EML4-ALK, 72 h; 3 days incubation.
Description: Cell media: RPMI-1640 medium, fetal calf serum (FCS), antibiotics (Penicillin-Streptomycin), IL-3, puromycin
Cell line: Ba/F3 EML4-ALK
Assay reagent: Cell Viability Assay Kit Celliter-Glo
as §2
as §1, with “in medium” for “in culture”, “a cell viability assay” for “a living-cell testing”, “was assayed by” for “was tested with”
as §3
Ba/F3 EML4-ALK cells were planted into a 384-well plate, with almost 300 cells per well. The plate was placed in a carbon dioxide incubator overnight.
as §4
10 concentrations of the working solutions were obtained in duplicate by dilution in 3-fold series with BRAVO.
Step 3.3 Mixing the compound to be tested with the test cells
The compounds to be tested at individual working concentrations were transferred into corresponding wells in the 384-well plate in the step 3.1, with 5 μM as the initial working concentration, and then the 384-well plate was incubated in the carbon dioxide incubator for 3 days.
To each well of the 384-well plate was added the reagent Promega CellTiter-Glo, and incubated at room temperature for 10 minutes to stabilize the luminescence signal. The results were read by the PerkinElmer Envision Multi-mode Plate Reader.

Assay [5] has as its target ALK (Homo sapiens (Human), UniProt Q9UM73). Briefly: Inhibition of ALK kinase activity (Caliper mobility shift). The assay is classed as biochemical. How it is done: as §5, §6, §7, §8, §9, §10, §11, §12, §13, §14, §15, §16, §17, §18, §19, §20, §21, §22, §23, §24, §25, §26, §27, §28, §29

Bounds are passed on as bounds.

Sequence of ALK (Q9UM73 19-1620): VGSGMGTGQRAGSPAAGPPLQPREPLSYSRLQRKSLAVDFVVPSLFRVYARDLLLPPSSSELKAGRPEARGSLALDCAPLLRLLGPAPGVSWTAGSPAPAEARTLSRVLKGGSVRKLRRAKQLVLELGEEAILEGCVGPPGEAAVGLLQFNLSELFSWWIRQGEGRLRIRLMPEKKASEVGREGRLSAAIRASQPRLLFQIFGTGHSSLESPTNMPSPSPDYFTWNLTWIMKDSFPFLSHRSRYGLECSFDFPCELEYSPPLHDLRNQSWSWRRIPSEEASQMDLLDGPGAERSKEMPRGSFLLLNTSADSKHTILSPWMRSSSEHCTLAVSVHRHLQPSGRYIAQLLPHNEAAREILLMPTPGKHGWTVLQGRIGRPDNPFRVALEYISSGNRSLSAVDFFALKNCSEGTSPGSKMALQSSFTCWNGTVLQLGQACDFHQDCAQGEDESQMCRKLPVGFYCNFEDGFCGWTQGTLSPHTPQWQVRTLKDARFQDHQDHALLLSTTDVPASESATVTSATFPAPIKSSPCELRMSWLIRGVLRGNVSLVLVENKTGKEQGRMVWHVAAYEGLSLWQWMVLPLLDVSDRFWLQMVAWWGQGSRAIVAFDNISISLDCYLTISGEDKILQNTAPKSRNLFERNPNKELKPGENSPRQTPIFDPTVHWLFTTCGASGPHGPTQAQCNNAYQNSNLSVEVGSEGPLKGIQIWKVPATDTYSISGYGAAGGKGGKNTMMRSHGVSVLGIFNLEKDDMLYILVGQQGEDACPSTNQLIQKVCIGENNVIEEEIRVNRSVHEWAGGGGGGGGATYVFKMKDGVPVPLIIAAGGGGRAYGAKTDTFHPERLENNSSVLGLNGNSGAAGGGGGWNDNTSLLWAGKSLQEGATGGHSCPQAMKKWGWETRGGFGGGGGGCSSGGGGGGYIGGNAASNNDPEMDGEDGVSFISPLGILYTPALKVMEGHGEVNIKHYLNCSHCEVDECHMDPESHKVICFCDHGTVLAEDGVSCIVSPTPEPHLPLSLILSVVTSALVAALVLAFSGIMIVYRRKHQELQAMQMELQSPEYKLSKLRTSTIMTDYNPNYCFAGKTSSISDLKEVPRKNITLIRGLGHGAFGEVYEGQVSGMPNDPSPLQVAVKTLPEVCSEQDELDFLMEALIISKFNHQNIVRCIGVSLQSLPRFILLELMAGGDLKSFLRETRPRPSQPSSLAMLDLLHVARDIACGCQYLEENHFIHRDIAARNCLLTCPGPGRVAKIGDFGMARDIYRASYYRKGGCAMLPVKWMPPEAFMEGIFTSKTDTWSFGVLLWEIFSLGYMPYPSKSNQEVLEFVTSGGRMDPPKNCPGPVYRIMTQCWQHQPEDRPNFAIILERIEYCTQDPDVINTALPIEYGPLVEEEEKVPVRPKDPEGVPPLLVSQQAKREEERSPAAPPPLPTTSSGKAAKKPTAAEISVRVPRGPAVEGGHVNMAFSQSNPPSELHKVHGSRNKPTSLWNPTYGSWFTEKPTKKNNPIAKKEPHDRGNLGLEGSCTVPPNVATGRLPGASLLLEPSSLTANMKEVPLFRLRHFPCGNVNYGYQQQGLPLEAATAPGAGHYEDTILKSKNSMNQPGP
Sequence of ALK L1196M (Q9UM73 19-1620 L1196M): as the sequence (Q9UM73 19-1620) above, with L1178M counted along it

As to `Cc1cc(Nc2ncc(Cl)c(Nc3ccccc3S(=O)(=O)C(C)C)n2)c(OC(C)C)cc1C1CCNCC1` [LDK378, Ceritinib], the response rate in assay [1] is recorded as 80%.
By IC50 is commonly meant the concentration that gives 50% inhibition. On to `COc1cc(N2CCC(O)CC2)ccc1Nc1ncc(Cl)c(Nc2cccnc2S(=O)(=O)C(C)C)n1` [Compound I-9], for which the IC50 is less than 50 nM in assay [2], 1 to 10 nM in assay [3], 20 to 100 nM in assay [4] and 1 to 10 nM in assay [5].
With `COc1cc(C2=CCN(C(C)C)CC2)ccc1Nc1ncc(Cl)c(Nc2ccsc2S(=O)(=O)C(C)C)n1` [Compound I-86, 5-chloro-N^2-(4-(1-isopropyl-1,2,3,6-tetrahydropyridin-4-yl)-2-methoxyphenyl)-N^4-(2-(isopropylsulfonyl)thiophen-3-yl) pyrimidine-2,4-diamine], the IC50 in assay [2] is less than 50 nM; in assay [3], less than 1 nM; in assay [4], less than 20 nM; in assay [5], less than 1 nM.
For the compound `COc1cc(C2=CCN(C(C)C)CC2)ccc1Nc1ncc(Cl)c(Nc2cccnc2S(=O)(=O)C(C)C)n1` [Compound I-85, 5-chloro-N^2-(4-(1-isopropyl-1,2,3,6-tetrahydropyridin-4-yl)-2-methoxyphenyl)-N^4-(2-(isopropylsulfonyl)pyridin-3-yl) pyrimidine-2,4-diamine], the IC50 in assay [2] was less than 50 nM; in assay [3] it was 1 to 10 nM; in assay [4], 20 to 100 nM; in assay [5], 1 to 10 nM.
As to `CCOc1cc(N2CCC(N(C)C)CC2)ccc1Nc1ncc(Cl)c(Nc2cccnc2S(=O)(=O)C(C)C)n1` [Compound I-92], the IC50 in assay [2] was 50 to 100 nM; in assay [3] it was 1 to 10 nM; in assay [4], less than 20 nM; in assay [5], 1 to 10 nM.
For `Cc1cc(Nc2ncc(Cl)c(Nc3ccccc3S(=O)(=O)C(C)C)n2)c(OC(F)F)cc1N1CCC(N(C)C)CC1` [Compound I-102, 5-chloro-N^2-(2-(difluoromethoxy)-4-(4-(dimethylamino)piperidin-1-yl)-5-methylphenyl)-N^4-(2-(isopropylsulfonyl)phenyl) pyrimidine-2,4-diamine], the IC50 was 50 to 100 nM in assay [2], less than 1 nM in assay [3], less than 20 nM in assay [4] and 1 to 10 nM in assay [5].
